Reference: patent US10757937B2, “Sulfonamides that activate ABA receptors” (The Regents of the University of California, priority 2014, dated 2020)

Tests used:
PYL4 = biological target: T1, PYL4 (Arabidopsis thaliana, UniProt O80920); experiment: receptor-mediated PP2C (HAB1) inhibition in vitro assay; format: biochemical; details: compound at 25 μM; control without agonist = 100%
T1 construct: 6X-His; made in house; host or cells: E. coli BL21[DE3]pLysS
T1 sequence (O80920 1-207): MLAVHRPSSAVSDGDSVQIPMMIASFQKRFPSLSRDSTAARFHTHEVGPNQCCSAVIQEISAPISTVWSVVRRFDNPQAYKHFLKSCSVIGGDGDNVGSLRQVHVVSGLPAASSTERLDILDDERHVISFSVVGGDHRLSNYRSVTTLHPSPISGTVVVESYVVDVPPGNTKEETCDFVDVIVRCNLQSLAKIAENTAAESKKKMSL
T1 sequence (Q9CAJ0 23-511 partner): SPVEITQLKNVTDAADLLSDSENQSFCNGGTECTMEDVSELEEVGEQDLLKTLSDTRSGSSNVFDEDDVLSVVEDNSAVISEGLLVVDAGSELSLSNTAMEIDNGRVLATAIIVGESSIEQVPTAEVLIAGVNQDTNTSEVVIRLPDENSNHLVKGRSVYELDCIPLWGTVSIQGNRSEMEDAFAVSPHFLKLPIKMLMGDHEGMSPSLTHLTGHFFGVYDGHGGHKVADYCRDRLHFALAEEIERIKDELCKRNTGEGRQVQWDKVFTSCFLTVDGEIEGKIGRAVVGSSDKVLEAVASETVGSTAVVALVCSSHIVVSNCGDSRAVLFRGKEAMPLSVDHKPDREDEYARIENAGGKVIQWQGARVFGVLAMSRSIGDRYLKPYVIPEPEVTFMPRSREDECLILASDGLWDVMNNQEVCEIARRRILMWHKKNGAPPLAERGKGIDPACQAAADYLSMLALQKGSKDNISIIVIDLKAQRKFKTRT
Method: (§1) A family of 62 structurally related N-acyl sulfonamides (Tables I-V) were tested for ABA agonist activity using multiple receptor-mediated PP2C inhibition in vitro assays (Park et al., 2009). […] The constructs utilized for protein expression have been previously described (Okamoto et al. 2013). For constructs encoding 6X-His-fusion proteins (all receptors except PYL11), the coding sequences were of the receptors were cloned in the vector pET28, expressed in BL21[DE3]pLysS E. coli host cells at 18° C. overnight, and subsequently purified from sonicated lysates using Ni-NTA agarose (Qiagen, USA), according to the manufacturer's instructions. PYL11 was constructed as a maltose binding protein fusion in the vector pMAL-c, expressed in BL21┌DE3┐pLysS host cells and purified using amylose resin (New England Biolabs) as described by the manufacturer. Recombinant GST-HAB1 was expressed and purified as described previously (Park et al., 2009). PP2C activity assays were conducted using the fluorogenic phosphatase substrate 4-methylumbelliferyl-phosphate. Recombinant receptors and HAB1 were used to examine ligand-induced PP2C inactivation in response to multiple test compounds. Enzyme inhibition assays were conducted using the following assay conditions: 50 nM GST-PP2C, 100 mM Tris-OAc (pH 7.9), 100 mM NaCl, 1 mM MnCl2, 1% β-mercaptoethanol. […] Because of this, the ratio of each receptor used in the PP2C-inhibitions assays was established empirically as the minimum fold-excess of receptor required to elicit maximal PP2C inhibition at a saturating ABA concentration (10 μM).
(§2) Based on this criterion, we used a ratio of 2:1 receptor in the assays described herein.
(§3) Using the above assay conditions, compounds were tested at 25 μM for agonist activity on PYL4, PYL5, PYL8 and PYL9. […] Consequently, a subset of the compounds was tested at multiple concentrations against 11 receptors so that IC50 values and receptor selectivity profiles could be examined. […] Thus, the N-acylsulfonamide agonists disclosed are selective for monomeric receptors.
(§4) Additional compounds were tested for biological activity following the procedures of Example 1 with minor modifications.
(§5) For these in vitro receptor assays, the compounds listed were tested in in vitro PP2C inhibition assays with 50 uM of the test compound except for ABA (10 uM). IC50s were calculated from dose curves, but only for selected compounds.

PYL8 = biological target: T2, PYL8 (Arabidopsis thaliana, UniProt Q9FGM1); experiment: as above; format: biochemical; details: compound at 25 μM; control without agonist = 100%
T2 construct: 6X-His; made in house; host or cells: E. coli BL21[DE3]pLysS
T2 sequence (Q9FGM1 1-188): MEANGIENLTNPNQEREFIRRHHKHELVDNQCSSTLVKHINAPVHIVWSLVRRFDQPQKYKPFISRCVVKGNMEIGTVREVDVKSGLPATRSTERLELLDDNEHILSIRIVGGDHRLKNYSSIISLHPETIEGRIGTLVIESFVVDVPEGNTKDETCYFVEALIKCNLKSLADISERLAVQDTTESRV
T2 sequence (Q9CAJ0 23-511 partner): T1 sequence (Q9CAJ0 23-511 partner)
Method: as §1, §2, §3, §4, §5

PYL5 = biological target: T3, PYL5 (Arabidopsis thaliana, UniProt Q9FLB1); experiment: as above; format: biochemical; details: compound at 25 μM; control without agonist = 100%
T3 construct: 6X-His; made in house; host or cells: E. coli BL21[DE3]pLysS
T3 sequence (Q9FLB1 1-203): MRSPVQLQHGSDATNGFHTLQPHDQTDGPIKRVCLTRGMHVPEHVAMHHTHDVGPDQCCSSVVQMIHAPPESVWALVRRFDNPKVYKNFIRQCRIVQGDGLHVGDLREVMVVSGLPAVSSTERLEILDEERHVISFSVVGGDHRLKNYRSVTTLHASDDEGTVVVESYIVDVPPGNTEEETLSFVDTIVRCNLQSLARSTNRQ
T3 sequence (Q9CAJ0 23-511 partner): T1 sequence (Q9CAJ0 23-511 partner)
Method: as §1, §2, §3, §4, §5

PYL9 = biological target: T4, PYL9 (Arabidopsis thaliana, UniProt Q84MC7); experiment: as above; format: biochemical; details: compound at 25 μM; control without agonist = 100%
T4 construct: 6X-His; made in house; host or cells: E. coli BL21[DE3]pLysS
T4 sequence (Q84MC7 1-187): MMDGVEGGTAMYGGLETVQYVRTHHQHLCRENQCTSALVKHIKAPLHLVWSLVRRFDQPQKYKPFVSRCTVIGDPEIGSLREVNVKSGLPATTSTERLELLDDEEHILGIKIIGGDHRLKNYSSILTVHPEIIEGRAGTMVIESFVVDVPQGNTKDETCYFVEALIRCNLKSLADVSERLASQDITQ
T4 sequence (Q9CAJ0 23-511 partner): T1 sequence (Q9CAJ0 23-511 partner)
Method: as §1, §2, §3, §4, §5

[1] = system: Arabidopsis seed germination and hypocotyl growth; experiment: Arabidopsis seed germination and hypocotyl growth; format: in vivo; details: − = none; for Hypocotyl Growth Inhibition: Germination Inhibition II, tested at 10 and 50 uM, lowest concentration that inhibited hypocotyl growth in wells where seeds germinated; for minimal effective concentration: Table VIII, tested at 10 or 50 μM, lowest inhibiting concentration, read-out: Hypocotyl Growth Inhibition
Method: We germinated seeds from wild type on ½× strength Murashige and Skoog salts growth medium containing either 10 or 50 μM for all 62 compounds as well as 1 μM (+)-ABA and mock controls. […] To investigate if the any of the compounds are sufficient to control vegetative ABA responses, we treated three week old Arabidopsis plants with aqueous solutions containing 0.02% Silwet and either 50 μM of selected N-acylsulfonamides, 50 μM ABA or 0.1% DMSO (the carrier solvent for the compounds tested). The leaf temperatures were subsequently examined using a thermal imaging camera 24 hours after treatment. It is well known that ABA-induced guard cell closure reduces transpiration, which leads to increases in leaf temperatures. It has been estimated that a 1° C. increase in leaf temperature correlates with a decrease in transpiration rates by approximately 50% (Sirault et al., 2009). Since guard cell aperture is the primary determinant of transpiration rates, thermal imaging is a useful way to indirectly infer relative transpiration rates and, indirectly, relative degrees of guard cell opening at the whole plant level.
as §4
For the germination inhibition experiment, the compounds were tested at 10 and 50 uM. The amounts shown are the lowest of the two concentrations that either inhibited germination or hypocotyl growth in wells where seeds germinated.
For the germination test, the compounds were tested at 1, 5, 10, 25 and 50 uM. The amounts shown are the lowest of the concentrations that either inhibited germination or hypocotyl growth in the wells where seeds germinated.

Compound	PP2C Activity (25 μm) PYL4 (PYL4)	PP2C Activity (25 μm) PYL8 (PYL8)	PP2C Activity (25 μm) PYL5 (PYL5)	PP2C Activity (25 μm) PYL9 (PYL9)	Hypocotyl Growth Inhibition [1]	minimal effective concentration [1]	remaining activity at 25 µM (PYL4)	remaining activity at 25 µM (PYL8)	remaining activity at 25 µM (PYL5)	remaining activity at 25 µM (PYL9)
CCC(CC)(C(=O)NS(=O)(=O)Cc1ccc(C#N)cc1)c1ccc(Cl)cc1 [Compound 10]	93%	83%	75%	73%	50 µM	50 µM				
CC(C)(C(=O)NS(=O)(=O)Cc1ccc(C#N)cc1)c1ccc2ccccc2c1 [Compound 54]	97%	106%	68%	109%	50 µM	50 µM				
CCOc1ccc(C2(C(=O)NS(=O)(=O)Cc3ccc(C#N)cc3)CC2)cc1 [Compound 52]	94%	91%	99%	98%						
N#Cc1ccc(CS(=O)(=O)NC(=O)C2(c3ccccc3)CCN(S(=O)(=O)c3ccccc3)CC2)cc1 [Compound 60]	90%	101%	70%	101%						
COc1ccc(C(C)(C)C(=O)NS(=O)(=O)Cc2ccc(C#N)cc2)cc1OC [Compound 21]	89%	98%	89%	102%						
N#Cc1ccc(CS(=O)(=O)NC(=O)C2(c3cccc(F)c3)CCC2)cc1 [Compound 33]	98%	39%	81%	24%	10 µM	10 µM				
N#Cc1ccc(CS(=O)(=O)NC(=O)C2(c3ccc(C(F)(F)F)cc3)CCOCC2)cc1 [Compound 59]	92%	97%	65%	98%						
CC(C)(C(=O)NS(=O)(=O)Cc1ccccc1)c1ccccc1 [Compound 5]	89%	83%	86%	61%	50 µM	50 µM				
N#Cc1ccc(CS(=O)(=O)NC(=O)C2(c3ccc(C(F)(F)F)cc3)CC2)cc1 [Compound 45]	93%	74%	30%	53%						
CC(C)(C(=O)NS(=O)(=O)Cc1ccc(C#N)cc1)c1ccc(C(F)(F)F)cc1 [Compound 11]	93%	62%	44%	58%						
CC(=O)N1CCC(C(=O)NS(=O)(=O)Cc2ccc(C#N)cc2)(c2ccccc2)CC1 [Compound 56]	94%	106%	105%	108%						
Cc1cc(C)cc(C2(C(=O)NS(=O)(=O)Cc3ccc(C#N)cc3)CC2)c1 [Compound 36]	91%	98%	34%	94%						
CC(C)(C)c1ccc(C2(C(=O)NS(=O)(=O)Cc3ccc(C#N)cc3)CC2)cc1 [Compound 40]	92%	106%	101%	103%						
N#Cc1ccc(CS(=O)(=O)NC(=O)C2(c3ccc(Br)cc3)CCC2)cc1 [Compound 31]	97%	80%	77%	74%						
CCc1ccc(C(C)(C)C(=O)NS(=O)(=O)Cc2ccc(C#N)cc2)cc1 [Compound 20]	95%	104%	88%	98%						
CC(C)(C(=O)NS(=O)(=O)Cc1ccc2cccnc2c1)c1ccccc1 [Compound 55]	96%	72%	95%	49%						
N#Cc1ccc(CS(=O)(=O)NC(=O)C2(c3ccccc3F)CC2)cc1 [Compound 47]	95%	86%	28%	75%						
O=C(NS(=O)(=O)Cc1cccc2cccnc12)C1(c2ccccc2)CC1 [Compound 62]							98%	100%	103%	100%
CC(C)COc1ccc(C(C)(C)C(=O)NS(=O)(=O)Cc2ccc(C#N)cc2)cc1 [Compound 14]	97%	108%	103%	108%						
N#Cc1ccc(CS(=O)(=O)NC(=O)C2(c3cccc(F)c3)CCOCC2)cc1 [Compound 57]	91%	56%	100%	39%						
N#Cc1ccc(CS(=O)(=O)NC(=O)C2(c3cccc(Cl)c3)CCOCC2)cc1 [Compound 58]	96%	84%	83%	83%						
